These results are taken from patent publication US12516039B2, “N-linked isoquinoline amides as LRRK2 inhibitors, pharmaceutical compositions, and uses thereof” (Merck Sharp & Dohme LLC, priority 2020, dated 2026).

The structures appear in SMILES notation.

In this assay the target is T1, GST-tagged truncated human mutant G2019S LRRK2 (Homo sapiens, UniProt Q5S007, G2019S).
T1 construct: GST-tagged truncated human mutant G2019S LRRK2; purchased Life Technologies Corporation (Carlsbad, CA)
T1 sequence (Q5S007 970-2527 G2019S limits assumed): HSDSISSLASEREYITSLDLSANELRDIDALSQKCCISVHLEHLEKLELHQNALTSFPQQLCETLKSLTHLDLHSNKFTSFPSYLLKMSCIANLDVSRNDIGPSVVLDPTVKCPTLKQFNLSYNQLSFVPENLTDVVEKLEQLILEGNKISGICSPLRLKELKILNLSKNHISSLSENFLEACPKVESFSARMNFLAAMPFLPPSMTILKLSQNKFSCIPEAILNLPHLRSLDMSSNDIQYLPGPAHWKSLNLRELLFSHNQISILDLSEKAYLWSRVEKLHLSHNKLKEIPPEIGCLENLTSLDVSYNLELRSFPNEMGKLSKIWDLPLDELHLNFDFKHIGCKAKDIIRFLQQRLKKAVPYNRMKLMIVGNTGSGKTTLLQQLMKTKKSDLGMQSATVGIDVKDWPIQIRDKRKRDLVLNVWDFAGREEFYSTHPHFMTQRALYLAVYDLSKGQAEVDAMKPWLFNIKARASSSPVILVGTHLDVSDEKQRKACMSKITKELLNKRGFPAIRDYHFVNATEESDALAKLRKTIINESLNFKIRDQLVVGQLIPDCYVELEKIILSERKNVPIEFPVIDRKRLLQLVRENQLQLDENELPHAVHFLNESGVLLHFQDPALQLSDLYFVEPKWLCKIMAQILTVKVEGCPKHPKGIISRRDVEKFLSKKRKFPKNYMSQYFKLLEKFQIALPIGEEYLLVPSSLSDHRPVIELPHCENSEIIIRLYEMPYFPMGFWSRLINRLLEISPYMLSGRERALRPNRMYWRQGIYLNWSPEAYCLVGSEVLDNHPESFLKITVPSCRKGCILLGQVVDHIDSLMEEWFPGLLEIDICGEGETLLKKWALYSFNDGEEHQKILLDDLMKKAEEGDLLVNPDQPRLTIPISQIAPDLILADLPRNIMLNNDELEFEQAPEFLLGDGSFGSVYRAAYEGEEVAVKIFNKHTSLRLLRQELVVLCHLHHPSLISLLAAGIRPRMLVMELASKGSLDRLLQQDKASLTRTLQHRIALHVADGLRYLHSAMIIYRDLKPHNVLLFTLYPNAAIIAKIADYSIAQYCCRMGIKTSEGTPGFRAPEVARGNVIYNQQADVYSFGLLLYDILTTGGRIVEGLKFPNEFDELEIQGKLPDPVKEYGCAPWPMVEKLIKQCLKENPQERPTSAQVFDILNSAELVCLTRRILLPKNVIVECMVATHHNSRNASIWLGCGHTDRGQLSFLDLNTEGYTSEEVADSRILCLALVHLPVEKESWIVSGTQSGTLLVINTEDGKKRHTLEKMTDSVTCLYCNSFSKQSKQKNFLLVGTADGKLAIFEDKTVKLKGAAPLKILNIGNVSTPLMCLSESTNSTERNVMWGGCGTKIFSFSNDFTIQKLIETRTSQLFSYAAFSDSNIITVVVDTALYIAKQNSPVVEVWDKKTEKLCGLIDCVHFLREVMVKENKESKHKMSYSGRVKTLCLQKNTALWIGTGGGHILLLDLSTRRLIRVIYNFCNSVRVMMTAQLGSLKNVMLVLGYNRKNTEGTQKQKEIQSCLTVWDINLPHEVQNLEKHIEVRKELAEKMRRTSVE
Kind of assay: LRRK2 G2019S Km ATP LanthaScreen assay. The format is biochemical. To be noted: 134 μM ATP (Km ATP), LRRKtide substrate, mean of several tests, read-out: LRRK2 pIC50 (converted). An outline of the steps: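 GST-tagged truncated human LRRK2 G2019S (1.25 nM enzyme solution) was preincubated 15 min with compound, then reacted 90 min at ambient temperature with fluorescein-LRRKtide (400 nM solution) and 134 μM ATP (Km) in Tris pH 8.5. EDTA stop; Tb anti-phospho-LRRKtide TR-FRET (520/495 ratio). IC50 from 4-parameter fits, mean of several runs.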
(In general: Time-resolved FRET reads energy transfer from a long-lived donor to a nearby acceptor.)
For the compound `COc1cc2cnc(NC(=O)C3CC34CCOCC4)cc2cc1N1CCN(C2(C)COCC2O)CC1` (single isomer, unassigned) [Ex-13], the IC50 is 3.39 nM.

For the compound `Cc1cc2cnc(NC(=O)C3CC3c3ccccn3)cc2cc1N1CCN(C2(C)COCC2F)CC1` (single isomer, unassigned) [Ex-6.14], the IC50 was 0.148 nM. For `CC12CC(C(=O)Nc3cc4cc(N5CCN(C6(C)COCC6O)CC5)c(Cl)cc4cn3)(CO1)C2` (single isomer, unassigned) [Ex-2.18, N-(7-chloro-6-(4-((3R,4R or 3S,4S)-4-hydroxy-3-methyltetrahydrofuran-3-yl)piperazin-1-yl)isoquinolin-3-yl)-1-methyl-2-oxabicyclo[2.1.1]hexane-4-carboxamide], the IC50 was 15.5 nM.

With `CC1(N2CCN(c3cc4cc(NC(=O)C5CC5)ncc4cc3F)CC2)COCC1O` (single isomer, unassigned) [Ex-1.5, (3R,4R or 3S,4S)-N-(7-fluoro-6-(4-(4-hydroxy-3-methyltetrahydrofuran-3-yl)piperazin-1-yl)isoquinolin-3-yl)cyclopropanecarboxamide], the IC50 was 7.08 nM.

Take `CC1(N2CCN(c3cc4cc(NC(=O)C5CC56CCOCC6)ncc4cc3Cl)CC2)COCC1O` (single isomer, unassigned) [Ex-2.2, (R or S)-N-(7-chloro-6-(4-((3R,4R or 3S,4S)-4-hydroxy-3-methyltetrahydrofuran-3-yl)piperazin-1-yl)isoquinolin-3-yl)-6-oxaspiro[2.5]octane-1-carboxamide]: the IC50 was 3.63 nM.

On to `Cc1cc2cnc(NC(=O)C3CC34CCOC4)cc2cc1N1CCN(C2(C)COCC2O)CC1` (single isomer, unassigned) [Ex-6.3, (1R, 3S or 1S,3R, or 1R,3S, or 1S,3S)-N-(6-(4-((3R, 4R or 3S,4S)-4-hydroxy-3-methyltetrahydrofuran-3-yl)piperazin-1-yl)-7-methylisoquinolin-3-yl)-5-oxaspiro[2.4]heptane-1-carboxamide], for which the IC50 was 0.832 nM. Take `CC1(N2CCN(c3cc4cc(NC(=O)C5CC56CC6)ncc4cc3Cl)CC2)COCC1O` (single isomer, unassigned) [Ex-2.15, (R or S)-N-(7-chloro-6-(4-((3R,4R or 3S,4S)-4-hydroxy-3-methyltetrahydrofuran-3-yl)piperazin-1-yl)isoquinolin-3-yl)spiro[2.2]pentane-1-carboxamide]: the IC50 is 30.2 nM.

As to `Cc1cc2cnc(NC(=O)C3CC34CCOCC4)cc2cc1N1CCN(C2(C)COCC2O)C[C@@H]1C` (single isomer, unassigned) [Ex-15.2, (R or S)-N-(6-((2R or 2S)-4-(4-(3R,4R or 3S,4S)-hydroxy-3-methyltetrahydrofuran-3-yl)-2-methylpiperazin-1-yl)-7-methylisoquinolin-3-yl)-6-oxaspiro[2.5]octane-1-carboxamide], the IC50 was 0.0813 nM.

With `O=C(Nc1cc2cc(N3CCN(C4COCC4O)CC3)c(Cl)cc2cn1)C1CC1` (single isomer, unassigned) [Ex-1.4, (3R,4R or 3S,4S)-N-(7-chloro-6-(4-(4-hydroxytetrahydrofuran-3-yl)piperazin-1-yl)isoquinolin-3-yl)cyclopropanecarboxamide], the IC50 is 57.5 nM. With `COC1CC(C(=O)Nc2cc3cc(N4CCN(C5(C)COCC5O)CC4)c(Cl)cc3cn2)C1` (single isomer, unassigned) [Ex-7.2], the IC50 is 0.977 nM.

With `CCC1C(C(=O)Nc2cc3cc(N4CCN(C5(C)COCC5F)CC4)c(Cl)cc3cn2)C1c1ccccn1` (single isomer, unassigned) [Ex-10.90, (1R,2R,3R, or 1R,2S,3R, or 1S,2R,3S, or 1S,2S,3S)-N-[7-chloro-6-[4-((3R,4R or 3S,4S)-4-fluoro-3-methyl-tetrahydrofuran-3-yl)piperazin-1-yl]-3-isoquinolyl]-2-ethyl-3-(2-pyridyl)cyclopropanecarboxamide], the IC50 is 2.04 nM. On to `CC1(C#N)CCN(c2cc3cc(NC(=O)C4CC4c4cncnc4)ncc3cc2Cl)CC1` (single isomer, unassigned) [Ex-5.15], for which the IC50 was 6.17 nM. With `CC1(N2CCN(c3cc4cc(NC(=O)C5CC56CCCOC6)ncc4cc3Cl)CC2)COCC1O` (single isomer, unassigned) [Ex-1.17, (1R,3S, or 1R,3R, or 1S,3S, or 1S,3R)-N-(7-chloro-6-(4-((3R,4R or 3S,4S)-4-hydroxy-3-methyltetrahydrofuran-3-yl)piperazin-1-yl)isoquinolin-3-yl)-5-oxaspiro[2.5]octane-1-carboxamide] the figure was 776 nM; with `CC1(N2CCN(c3cc4cc(NC(=O)C5CC5c5ccccn5)ncc4cc3F)CC2)COCC1O` (single isomer, unassigned) [Ex-2.23, (1R,2R or 1S,2S)-N-[7-fluoro-6-[4-[(3R,4R or 3S,4S)-4-hydroxy-3-methyl-tetrahydrofuran-3-yl]piperazin-1-yl]-3-isoquinolyl]-2-(2-pyridyl)cyclopropanecarboxamide], 0.316 nM; with `CCC1(N2CCN(c3cc4cc(NC(=O)C5CC56CCOCC6)ncc4cc3Cl)CC2)COCC1O` (single isomer, unassigned) [Ex-2.22, (R or S)-N-(7-chloro-6-(4-((3R,4R or 3S,4S)-3-ethyl-4-hydroxytetrahydrofuran-3-yl)piperazin-1-yl)isoquinolin-3-yl)-6-oxaspiro[2.5]octane-1-carboxamide], 0.372 nM. `CCC1C(C(=O)Nc2cc3cc(N4CCN(C5(C)COCC5F)CC4)c(C)cc3cn2)C1c1cnn(C)c1` (stereo not shown) [Ex-9.20]: the IC50 was 0.0813 nM. For `COCC1CCC1C(=O)Nc1cc2cc(N3CCN(C4(C)COCC4O)CC3)c(Cl)cc2cn1` (single isomer, unassigned) [Ex-1.26, (1R,2S or 1R,2R, or 1S,2S, or 1S,2R)-N-(7-chloro-6-(4-((3R,4R)-4-hydroxy-3-methyltetrahydrofuran-3-yl)piperazin-1-yl)isoquinolin-3-yl)-2-(methoxymethyl)cyclobutane-1-carboxamide], the IC50 was 1.45 nM. Turning to `CC1C(C(=O)Nc2cc3cc(N4CCN(C5(C)COCC5F)CC4)c(Cl)cc3cn2)C1c1ccn(C)n1` (single isomer, unassigned) [Ex-10.15], the IC50 is 1.17 nM. Consider `CCC1C(C(=O)Nc2cc3cc(N4CCN(C5(C)CCOC5)CC4)c(C)cc3cn2)C1c1cnn(C)c1` (single isomer, unassigned) [Ex-10.38, (1R,2R,3R, 1R,2S,3R, 1S,2R,3S, or 1S,2S,3S)-2-ethyl-N-[7-methyl-6-[4-((R or S)-3-methyltetrahydrofuran-3-yl)piperazin-4-ium-1-yl]-3-isoquinolyl]-3-(1-methylpyrazol-4-yl)cyclopropanecarboxamide], for which the IC50 was 0.759 nM.
